According to patent US20050256003A1, “Novel herbicides” (priority 2002, published 2005):

Legend:
[1] = tested on: monocotyledonous and dicotyledonous test plants; experiment: Herbicidal action prior to emergence of the plants (pre-emergence action); assay type: in vivo; design: key: 10=total damage; 0=no action; Ratings of from 10 to 7 (especially from 10 to 8) indicate good to very good herbicidal action; conditions: 250 g a.i./ha, pre-emergence spray, evaluated after 3 weeks, scale 10=total damage, 0=no action
Source text: Herbicidal Action Prior to Emergence of the Plants (Pre-Emergence Action)
Monocotyledonous and dicotyledonous test plants are sown in standard soil in plastic pots Immediately after sowing, the test compounds, in the form of an aqueous suspension (prepared from a 25% wettable powder (Example F3, b) according to WO 97/34485) or in the form of an emulsion (prepared from a 25% emulsifiable concentrate (Example F1, c)), are applied by spraying in a concentration corresponding to 125 g or 250 g of active ingredient/ha (500 litres of water/ha). The test plants are then grown in a greenhouse under optimum conditions. After a test duration of 3 weeks, the test is evaluated in accordance with a scale of nine ratings (10=total damage, 0=no action). Ratings of from 10 to 7 (especially from 10 to 8) indicate good to very good herbicidal action.

[2] = tested on: monocotyledonous and dicotyledonous test plants; experiment: Post-emergence herbicidal action; assay type: in vivo; design: key: 10=total damage; 0=no action; Ratings of from 10 to 7 (especially from 10 to 8) indicate good to very good herbicidal action; conditions: 250 g a.i./ha, about 18 days, rating 0-10
Experimental: Post-Emergence Herbicidal Action
In a greenhouse, monocotyledonous and dicotyledonous test plants are grown in standard soil in plastic pots and at the 4- to 6-leaf stage are sprayed with an aqueous suspension of the test compounds of formula I prepared from a 25% wettable powder (Example F3, b) according to WO 97/34485) or with an emulsion of the test compounds of formula I prepared from a 25% emulsifiable concentrate (Example F1, c) according to WO 97/34485), in a concentration corresponding to 125 g or 250 g of active ingredient/ha (500 litres of water/ha). The test plants are then grown on in a greenhouse under optimum conditions. After a test duration of about 18 days, the test is evaluated in accordance with a scale of nine ratings (10=total damage, 0=no action). Ratings of from 10 to 7 (especially from 10 to 8) indicate good to very good herbicidal action.

Cc1nn(Cc2nc(C(F)(F)F)ccc2C(=O)C2=C(O)C3CCC(C3)C2=O)c(=O)s1 (centres unmarked) [Compound A6.079]
Pre-emergence action: Abutilon (rating) [1]: 10 | Pre-emergence action: Amaranthus (rating) [1]: 7 | Pre-emergence action: Chenopodium (rating) [1]: 10 | Pre-emergence action: Cyperus (rating) [1]: 6 | Pre-emergence action: Echinochloa (rating) [1]: 7 | Pre-emergence action: Panicum (rating) [1]: 9 | Pre-emergence action: Scirpus (rating) [1]: 9 | Pre-emergence action: Sida (rating) [1]: 6

COc1nn(Cc2nc(C(F)(F)F)ccc2C(=O)C2=C(O)CCCC2=O)c(=O)s1 [Compound A1.091]
Pre-emergence action: Abutilon (rating) [1]: 10 | Pre-emergence action: Amaranthus (rating) [1]: 8 | Pre-emergence action: Chenopodium (rating) [1]: 9 | Pre-emergence action: Cyperus (rating) [1]: 8 | Pre-emergence action: Echinochloa (rating) [1]: 9 | Pre-emergence action: Panicum (rating) [1]: 4 | Pre-emergence action: Scirpus (rating) [1]: 9 | Pre-emergence action: Sida (rating) [1]: 7 | Post-emergence action, Amaranthus [2]: 9 | Post-emergence action, Chenopodium [2]: 10 | Post-emergence action, Echinochloa [2]: 9 | Post-emergence action, Euphorbia [2]: 8 | Post-emergence action, Ipomea [2]: 9 | Post-emergence action, Sinapis [2]: 8 | Post-emergence action, Stellaria [2]: 10 | Post-emergence action, Xanthium [2]: 9

Cc1nn(Cc2nc(C(F)(F)F)ccc2C(=O)C2=C(O)C(C)(C)C(=O)C(C)(C)C2=O)c(=O)o1 [Compound A8.008]
Pre-emergence action: Abutilon (rating) [1]: 10 | Pre-emergence action: Chenopodium (rating) [1]: 10 | Pre-emergence action: Cyperus (rating) [1]: 0 | Pre-emergence action: Echinochloa (rating) [1]: 10 | Pre-emergence action: Panicum (rating) [1]: 10 | Pre-emergence action: Scirpus (rating) [1]: 0 | Pre-emergence action: Sida (rating) [1]: 10 | Post-emergence action, Amaranthus [2]: 9 | Post-emergence action, Chenopodium [2]: 8 | Post-emergence action, Echinochloa [2]: 8 | Post-emergence action, Euphorbia [2]: 8 | Post-emergence action, Ipomea [2]: 9 | Post-emergence action, Sinapis [2]: 7 | Post-emergence action, Stellaria [2]: 6 | Post-emergence action, Xanthium [2]: 9

CSC(C)n1c(C)cc(=O)n1Cc1nc(C(F)(F)F)ccc1C(=O)C1=C(O)CCCC1=O (racemic) [Compound A1.055]
Pre-emergence action: Abutilon (rating) [1]: 10 | Pre-emergence action: Amaranthus (rating) [1]: 0 | Pre-emergence action: Chenopodium (rating) [1]: 10 | Pre-emergence action: Cyperus (rating) [1]: 10 | Pre-emergence action: Echinochloa (rating) [1]: 10 | Pre-emergence action: Panicum (rating) [1]: 9 | Pre-emergence action: Scirpus (rating) [1]: 9 | Pre-emergence action: Sida (rating) [1]: 10

CC(C)N1CC(=O)N(Cc2nc(C(F)(F)F)ccc2C(=O)c2cnn(C)c2O)C1=O [Compound B1.170]
Pre-emergence action: Abutilon (rating) [1]: 9 | Pre-emergence action: Amaranthus (rating) [1]: 9 | Pre-emergence action: Chenopodium (rating) [1]: 10 | Pre-emergence action: Cyperus (rating) [1]: 8 | Pre-emergence action: Echinochloa (rating) [1]: 9 | Pre-emergence action: Panicum (rating) [1]: 9 | Pre-emergence action: Scirpus (rating) [1]: 9 | Pre-emergence action: Sida (rating) [1]: 9 | Post-emergence action, Amaranthus [2]: 9 | Post-emergence action, Chenopodium [2]: 9 | Post-emergence action, Echinochloa [2]: 9 | Post-emergence action, Euphorbia [2]: 7 | Post-emergence action, Ipomea [2]: 0 | Post-emergence action, Sinapis [2]: 9 | Post-emergence action, Stellaria [2]: 9 | Post-emergence action, Xanthium [2]: 6

Cc1nn(CCOCc2nc(C(F)(F)F)ccc2C(=O)C2=C(O)C3CCC(C3)C2=O)c(=O)o1 (centres unmarked) [Compound A6.100]
Pre-emergence action: Abutilon (rating) [1]: 10 | Pre-emergence action: Amaranthus (rating) [1]: 10 | Pre-emergence action: Chenopodium (rating) [1]: 10 | Pre-emergence action: Cyperus (rating) [1]: 6 | Pre-emergence action: Echinochloa (rating) [1]: 10 | Pre-emergence action: Panicum (rating) [1]: 10 | Pre-emergence action: Scirpus (rating) [1]: 10 | Pre-emergence action: Sida (rating) [1]: 10 | Post-emergence action, Amaranthus [2]: 9 | Post-emergence action, Chenopodium [2]: 10 | Post-emergence action, Echinochloa [2]: 7 | Post-emergence action, Euphorbia [2]: 7 | Post-emergence action, Ipomea [2]: 9 | Post-emergence action, Sinapis [2]: 8 | Post-emergence action, Stellaria [2]: 9 | Post-emergence action, Xanthium [2]: 7

Cn1ncn(Cc2nc(C(F)(F)F)ccc2C(=O)C2=C(O)C(C)(C)C(=O)C(C)(C)C2=O)c1=O [Compound A8.080]
Pre-emergence action: Abutilon (rating) [1]: 10 | Pre-emergence action: Amaranthus (rating) [1]: 0 | Pre-emergence action: Chenopodium (rating) [1]: 10 | Pre-emergence action: Cyperus (rating) [1]: 0 | Pre-emergence action: Echinochloa (rating) [1]: 10 | Pre-emergence action: Panicum (rating) [1]: 9 | Pre-emergence action: Scirpus (rating) [1]: 8 | Pre-emergence action: Sida (rating) [1]: 9 | Post-emergence action, Amaranthus [2]: 9 | Post-emergence action, Chenopodium [2]: 10 | Post-emergence action, Echinochloa [2]: 9 | Post-emergence action, Euphorbia [2]: 9 | Post-emergence action, Ipomea [2]: 10 | Post-emergence action, Sinapis [2]: 10 | Post-emergence action, Stellaria [2]: 10 | Post-emergence action, Xanthium [2]: 8

O=C1CCCC(O)=C1C(=O)c1ccc(C(F)(F)F)nc1Cn1sccc1=O [Compound A1.109]
Post-emergence action, Amaranthus [2]: 9 | Post-emergence action, Chenopodium [2]: 10 | Post-emergence action, Echinochloa [2]: 8 | Post-emergence action, Euphorbia [2]: 10 | Post-emergence action, Ipomea [2]: 9 | Post-emergence action, Sinapis [2]: 3 | Post-emergence action, Stellaria [2]: 5 | Post-emergence action, Xanthium [2]: 9

O=C1CCCC(O)=C1C(=O)c1ccc(C(F)(F)F)nc1Cn1sc(Cl)cc1=O [Compound A1.115]
Post-emergence action, Amaranthus [2]: 9 | Post-emergence action, Chenopodium [2]: 9 | Post-emergence action, Echinochloa [2]: 7 | Post-emergence action, Euphorbia [2]: 8 | Post-emergence action, Ipomea [2]: 7 | Post-emergence action, Sinapis [2]: 3 | Post-emergence action, Stellaria [2]: 9 | Post-emergence action, Xanthium [2]: 9

Cc1nn(CCOCc2nc(C(F)(F)F)ccc2C(=O)C2=C(O)C3CCC(C3)C2=O)c(=O)s1 (centres unmarked) [Compound A6.082]
Post-emergence action, Amaranthus [2]: 8 | Post-emergence action, Chenopodium [2]: 9 | Post-emergence action, Echinochloa [2]: 7 | Post-emergence action, Euphorbia [2]: 7 | Post-emergence action, Ipomea [2]: 8 | Post-emergence action, Sinapis [2]: 5 | Post-emergence action, Stellaria [2]: 9 | Post-emergence action, Xanthium [2]: 7
